Experimental data taken from article PMC12867150, “A fungi-derived cyclic peptide enhances Th9-mediated antitumor immunity by targeting ZAP70 and SREBP1” (The Journal of Clinical Investigation, 2025).
“And” between values parts separate entries of the source, which are not always exact repeats. Equal values may be shown once.

Legend:
human Th9 CAR T cells = test: CAR lentivirus infection efficiency, GFP (S9C); type: cell-based; settings: representative flow plot, Figure S9C
Text: Ct EpA Fat Fat Ct EpA Fat Fat
(A) Flow-cytometric analysis of intracellular IL-9 expression in human Th9 cells […]
(B) Flow-cytometric assessment of mitochondrial mass using Mito Tracker in human Th9 cells treated as in (A) (n = 3).
(C) Flow-cytometric analysis of infection efficiency in Th9 cells transduced with a CD19-directed CAR lentivirus. (D and E) Flow-cytometric analysis of IL-9 expression in human Th9 CAR-T cells on days 5 and 6 of in vitro differentiation, showing representative plots (D) and quantification (E) (n = 3). (F) Measurement of intracellular ATP levels normalized to cell number in human Th9 CAR-T c e l l s (n =5).
(G) Flow-cytometric analysis of mitochondrial mass using Mito Tracker in human Th9 CAR-T c e l l s (n = 3). (H and I) Flow-cytometric analysis of granzyme B⁺ CAR-Th9 cells isolated from spleens after adoptive transfer, showing representative plots (H) and quantification (I) (n = 5 mice per group). Statistical analysis was performed using one-way ANOVA with Tukey’s post hoc test (A and B), or two-tailed unpaired Student’s t-test (E–G, and I). Repeated data are presented as mean ± SEM. *p < 0.05, […]

Th9 cells = test: Th9 differentiation, dose response, IL-9+ cells by flow cytometry (Figure 1D); type: cell-based, mouse; set-up: IL-9+ Th9 differentiation: unit not given here; settings: for IL-9+ Th9 differentiation: flow cytometry, individual replicates, n = 6
Protocol: IL-9 expression peaked at 10 μM, which was used for all subsequent experiments (Figure 1D).
Naive CD4^+ T cells were isolated from the spleens of C57BL/6J or CD45.1^+ OT-II mice using the MojoSort Mouse CD4 Naive T Cell Isolation Kit (BioLegend, catalog 480040), following the manufacturer’s protocol. Purified cells were cultured in RPMI-1640 medium supplemented with 10% FBS, 1% penicillin-streptomycin, and 0.1% β-mercaptoethanol (Gibco, catalog 21985023).
T cell polarization was initiated under plate-bound anti-CD3 (2 μg/mL, clone 17A2, BioXCell, catalog BE0002) and soluble anti-CD28 (1 μg/mL, clone 37.51, BioXCell, catalog BE0015-1) stimulation, with the addition of cytokines and neutralizing antibodies specific to each subset. For Th9 cells, these included IL-4 (10 ng/mL, Peprotech, catalog 400-04), TGF-β (1 ng/mL, EPOTO Biotech, catalog HF-2021), anti–IL-12 (5 μg/mL, clone C17.8, BioXCell, catalog BE0051), and anti–IFN-γ (10 μg/mL, clone XMG1.2, BioXCell, catalog BE0055); for Th1 cells, these included IL-12 (10 ng/mL, GenScript, catalog Z03211-50) and anti–IL-4 (5 μg/mL, clone 11B11, BioXCell, catalog BE0045); for Th2 cells, these included IL-4 (50 ng/mL), anti–IFN-γ (20 μg /mL), anti–IL-12 (5 μg/mL), Th17 cells: IL-6 (20 ng/mL, EPOTO Biotech, catalog MF-1006), TGF-β (1 ng/mL), IL-1β (10 ng/mL, Peprotech, catalog AF-211-11B), anti–IFN-γ (10 μg/mL), anti–IL-12 (5 μg/mL), and anti–IL-4 (5 μg/mL); and for Tregs, these included TGF-β (3 ng/mL). After 3 days of initial culture, cells were either collected for downstream assays or continued in extended culture with refreshed cytokines to maintain lineage commitment.
During the entire culture period, experimental groups were treated continuously with the indicated compound at the designated concentration, whereas control groups received an equal volume of DMSO.
BioLegend, Cat. No. 422301 or Mouse TruStain FcX™, BioLegend, Cat. No. 101319) for 10 minutes at 4°C. For surface marker detection, cells were stained with fluorochrome-conjugated monoclonal antibodies in 96-well V-bottom plates and incubated on ice for 30 minutes. After staining, cells were washed twice and resuspended in FACS buffer for analysis.
Prior to intracellular cytokine staining, cells were restimulated for 4 hours with PMA (Absin, Cat. No. abs9107), ionomycin (Sigma-Aldrich, Cat. No. I0634), and brefeldin A (MedChemExpress, Cat. No. HY-16592). For intracellular cytokine staining, cells were first surface-stained as described above, then fixed and permeabilized using the BD Cytofix/Cytoperm™ kit (BD Biosciences, Cat. No. 554714) according to the manufacturer ’s protocol. Intracellular proteins were stained with directly conjugated antibodies targeting IL-9, IL-17a, IL-4, IFN-γ, TNF-α, FOXP3, p-ZAP70, Perforin, and […]

In the case of anteiso-C15 Leu7 surfactin [EpA], the “GFP gate number (infection efficiency)” value (human Th9 CAR T cells) is reported as 47.8, the “IL-9+ Th9 differentiation” value (Th9 cells; EpA 1 μM) is reported as 49.4 and 48.8 and 36.1 and 37.3 and 36.5 and 50.3 and the “IL-9+ Th9 differentiation” value (Th9 cells; EpA 10 μM) is reported as 82.5 and 80.4 and 79.9 and 77.4 (2×) and 76.3. For the same substance, the “IL-9+ Th9 differentiation” value (Th9 cells; EpA 20 μM) was 52.4 and 52.2 and 48.1 and 34.8 and 36 and 37.3 and the “concentration at which IL-9 expression peaked” value (Th9 cells; increasing concentrations of EpA) was 10 µM.
